Measurements from ChEMBL document CHEMBL5096207, “Identification of a Hydroxypyrimidinone Compound (21) as a Potent APJ Receptor Agonist for the Potential Treatment of Heart Failure” (J Med Chem, 2021).
pEC50: −log10 of the molar value.

Legend:
[1] = target: T1, Apelin receptor (Homo sapiens, UniProt P35414); assay: Agonist activity at human APJ expressed in HEK293 cells assessed as inhibition of forskolin-stimulated cAMP production incubated for 60 mins by fluorescence based analysis
T1 sequence (P35414 whole entry): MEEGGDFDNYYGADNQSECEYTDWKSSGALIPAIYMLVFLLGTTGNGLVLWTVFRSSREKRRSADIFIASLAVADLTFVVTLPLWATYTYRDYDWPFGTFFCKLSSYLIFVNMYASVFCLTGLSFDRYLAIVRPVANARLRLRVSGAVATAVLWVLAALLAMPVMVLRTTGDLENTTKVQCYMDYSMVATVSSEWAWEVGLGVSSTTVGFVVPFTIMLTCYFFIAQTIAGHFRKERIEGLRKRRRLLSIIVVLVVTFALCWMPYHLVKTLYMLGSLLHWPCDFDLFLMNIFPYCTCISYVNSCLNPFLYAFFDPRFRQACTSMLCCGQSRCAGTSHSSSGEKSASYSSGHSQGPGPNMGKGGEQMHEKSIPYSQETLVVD

[2] = Volume of distribution in overnight fasted Sprague-Dawley rat at 1 mg/kg, po or 1 mg/kg, iv measured upto 48 hrs by LC/MS/MS analysis; assay type: ADME, organism-based; conditions: in vivo
[3] = Cmax in overnight fasted Sprague-Dawley rat at 1 mg/kg, po or 1 mg/kg, iv measured upto 48 hrs by LC/MS/MS analysis; assay type: ADME, organism-based; design: time < 48 hrs, dose 1 mg/kg, route po; conditions: in vivo
[4] = AUC (0 to 24hrs) in overnight fasted Sprague-Dawley rat at 1 mg/kg, po or 1 mg/kg, iv measured upto 48 hrs by LC/MS/MS analysis; assay type: ADME, organism-based; design: time < 48 hrs, dose 1 mg/kg, route po; conditions: in vivo
[5] = Oral bioavailability in overnight fasted Sprague-Dawley rat at 1 mg/kg measured upto 48 hrs by LC/MS/MS analysis; assay type: ADME, organism-based; conditions: in vivo
[6] = Volume of distribution at steady state in overnight fasted cynomolgus monkey at 3 mg/kg, po or 1 mg/kg, iv measured upto 72 hrs by LC/MS/MS analysis; assay type: ADME, organism-based, Macaca fascicularis; conditions: in vivo
[7] = Cmax in overnight fasted cynomolgus monkey at 3 mg/kg, po or 1 mg/kg, iv measured upto 72 hrs by LC/MS/MS analysis; assay type: ADME, organism-based, Macaca fascicularis; design: time < 72 hrs, dose 3 mg/kg, route po; conditions: in vivo
[8] = AUC (0 to 24hrs) in overnight fasted cynomolgus monkey at 3 mg/kg, po or 1 mg/kg, iv measured upto 72 hrs by LC/MS/MS analysis; assay type: ADME, organism-based, Macaca fascicularis; design: time < 72 hrs, dose 3 mg/kg, route po; conditions: in vivo
[9] = Oral bioavailability in overnight fasted cynomolgus monkey at 3 mg/kg measured upto 72 hrs by LC/MS/MS analysis; assay type: ADME, organism-based, Macaca fascicularis; conditions: in vivo
[10] = Volume of distribution at steady state in dog at 1 mg/kg, po or 1 mg/kg, iv by LC/MS/MS analysis; assay type: ADME, organism-based, Canis lupus familiaris; conditions: in vivo
[11] = Cmax in dog at 1 mg/kg, po or 1 mg/kg, iv by LC/MS/MS analysis; assay type: ADME, organism-based, Canis lupus familiaris; design: dose 1 mg/kg, route po; conditions: in vivo
[12] = AUC (0 to 24hrs) in dog at 1 mg/kg, po or 1 mg/kg, iv by LC/MS/MS analysis; assay type: ADME, organism-based, Canis lupus familiaris; design: dose 1 mg/kg, route po; conditions: in vivo
[13] = Oral bioavailability in dog at 1 mg/kg by LC/MS/MS analysis; assay type: ADME, organism-based, Canis lupus familiaris; conditions: in vivo
[14] = Drug excretion in Sprague-Dawley rat urine at 1 mg/kg, iv; assay type: ADME, organism-based; conditions: read-out: Drug excretion
[15] = Drug excretion in dog urine at 1 mg/kg, iv; assay type: ADME, organism-based, Canis lupus familiaris; conditions: read-out: Drug excretion
[16] = Toxicity in Sprague-Dawley rat assessed as hemodynamic reponse by measuring increase in heart rate at 0.001 to 0.1 mg/kg/min, iv infusion administered for 15 mins by PV-loop based analysis; assay type: organism-based; conditions: in vivo, dose 0.001-0.1 mg/kg/min

| SMILES | pEC50 [1] | Vdss [2] [L/kg] | Cmax [3] [µM] | AUC(0-t) at 48 h [4] [µM·h] | bioavailability [5] [%] | Vdss [6] [L/kg] | Cmax [7] [µM] | AUC(0-t) at 72 h [8] [µM·h] | bioavailability [9] [%] | Vdss [10] [L/kg] | Cmax [11] [µM] | AUC(0-t) [12] [µM·h] | bioavailability [13] [%] | dose excreted [14] [%] | dose excreted [15] [%] | Activity [16] |
| --- | --- | --- | --- | --- | --- | --- | --- | --- | --- | --- | --- | --- | --- | --- | --- | --- |
| CCOCc1nc(=O)c(C(=O)N2CC[C@H](c3ccccc3)C2)c(O)n1-c1c(OC)cccc1OC | 9.40 | – | – | – | – | – | – | – | – | – | – | – | – | – | – | – |
| CCc1cccc(CC)c1-n1c(-c2ccn(C)n2)nc(=O)c(C(=O)N2CC[C@@H](c3ncc(Cl)cc3F)C2)c1O | – | 1.6 | 2.2 | 3.7 | 54 | 0.2 | 1.4 | 2.5 | 27 | 0.2 | 6.5 | 14.2 | 76 | 4 | < 4 | Non-Toxic |
| CC(CCc1ccc(O)cc1)NCCc1ccc(O)c(O)c1 (configuration not stated) [DOBUTAMINE] | – | – | – | – | – | – | – | – | – | – | – | – | – | – | – | Toxic |
